Test results taken from ChEMBL document CHEMBL4834404, “Template-Hopping Approach Leads to Potent, Selective, and Highly Soluble Bromo and Extraterminal Domain (BET) Second Bromodomain (BD2) Inhibitors” (J Med Chem, 2021).
≈ marks a conversion by molar mass, not a printed value.

Legend:
[1] = Solubility of compound by CLND assay; assay type: physicochemical
[2] = biological target: Bromodomain-containing protein 4 (Homo sapiens, UniProt O60885, Y97A); experiment: Inhibition of 6His-Thr-BRD4 (1 to 477 residues) BD1 Y97A mutant (unknown origin) incubated for 30 mins by TR-FRET assay
Homo sapiens = species: Homo sapiens; experiment: Selectivity index, ratio of pIC50 of BRD4 BD1 (unknown origin) to pIC50 of BRD4 BD2 (unknown origin)
[3] = biological target: Bromodomain-containing protein 4 (Homo sapiens, UniProt O60885, Y390A); experiment: Inhibition of 6His-Thr-BRD4 (1 to 477 residues) BD2 domain Y390A mutant (unknown origin) incubated for 30 mins by TR-FRET assay
[4] = Permeability of compound; assay type: ADME; settings: not told; read-out: permeability

CNC(=O)c1ccc(O[C@@H](C)c2ccccn2)c(-c2cn(C)nn2)c1
solubility kinetic [1]: ≥ 138 µg/mL | IC50 [2]: 10 µM | Ratio pIC50 (Homo sapiens): 80 | IC50 [3]: 0.126 µM | Papp [4]: 7 ×10⁻⁶ cm/s

CCNC(=O)c1ccc(OCc2ccccn2)c(-c2cn(C)nn2)c1
solubility kinetic [1]: 114 µg/mL (≈ 338 µM) | IC50 [2]: 39.8 µM | Ratio pIC50 (Homo sapiens): 125 | IC50 [3]: 0.316 µM | Papp [4]: 14 ×10⁻⁶ cm/s

CCNC(=O)c1ccc(OCc2ccccc2OC)c(-c2cn(C)nn2)c1
solubility kinetic [1]: ≥ 162 µg/mL | IC50 [2]: 20 µM | Ratio pIC50 (Homo sapiens): 160 | IC50 [3]: 0.126 µM | Papp [4]: 48 ×10⁻⁶ cm/s

CCNC(=O)c1cc(Cc2ccccc2OC)nc(-c2cn(C)nn2)c1
solubility kinetic [1]: 62 µg/mL (≈ 176 µM) | IC50 [2]: 39.8 µM | Ratio pIC50 (Homo sapiens): 200 | IC50 [3]: 0.2 µM | Papp [4]: 37 ×10⁻⁶ cm/s

Cn1cc(-c2cc(C(=O)NCC3CCOCC3)cc(Cc3ccccc3)n2)nn1
solubility kinetic [1]: ≥ 142 µg/mL | IC50 [2]: > 50.1 µM | Ratio pIC50 (Homo sapiens): > 160 | IC50 [3]: 0.316 µM | Papp [4]: 22 ×10⁻⁶ cm/s

CCNC(=O)c1ccc(OCc2ccncc2)c(-c2cn(C)nn2)c1
solubility kinetic [1]: ≥ 115 µg/mL | IC50 [2]: 12.6 µM | Ratio pIC50 (Homo sapiens): 15 | IC50 [3]: 1 µM | Papp [4]: 30 ×10⁻⁶ cm/s

CC(=O)Nc1ccccc1OCc1ccccc1
solubility kinetic [1]: ≥ 113 µg/mL

CCNC(=O)c1cc(Cc2cccc(F)c2)nc(-c2cn(C)nn2)c1
solubility kinetic [1]: 73 µg/mL (≈ 215 µM) | IC50 [2]: 15.8 µM | Ratio pIC50 (Homo sapiens): 65 | IC50 [3]: 0.251 µM | Papp [4]: 41 ×10⁻⁶ cm/s

C[C@H](Oc1ccc(C(=O)NCC2CCOCC2)cc1-c1cn(C)nn1)c1ccccn1
solubility kinetic [1]: ≥ 192 µg/mL | IC50 [2]: 31.6 µM | Ratio pIC50 (Homo sapiens): 65 | IC50 [3]: 0.501 µM | Papp [4]: 5.5 ×10⁻⁶ cm/s

CCNC(=O)c1ccc(OCCc2ccccc2)c(-c2cn(C)nn2)c1
solubility kinetic [1]: 95 µg/mL (≈ 271 µM) | IC50 [2]: > 50.1 µM | Ratio pIC50 (Homo sapiens): > 20 | IC50 [3]: 2.51 µM | Papp [4]: 49 ×10⁻⁶ cm/s

CCNC(=O)c1ccc(OCc2cccnc2)c(-c2cn(C)nn2)c1
solubility kinetic [1]: 103 µg/mL (≈ 305 µM) | IC50 [2]: > 50.1 µM | Ratio pIC50 (Homo sapiens): > 50 | IC50 [3]: 1 µM | Papp [4]: 18 ×10⁻⁶ cm/s

CCNC(=O)c1ccc(OCC2CCOCC2)c(-c2cn(C)nn2)c1
solubility kinetic [1]: ≥ 208 µg/mL | Papp [4]: 11 ×10⁻⁶ cm/s

Cc1nc(-c2ccccc2OCc2ccccc2)n[nH]1
solubility kinetic [1]: ≥ 70 µg/mL | IC50 [2]: > 50.1 µM | Ratio pIC50 (Homo sapiens): > 6 | IC50 [3]: 7.94 µM

CCNC(=O)c1cc(Cc2ccc(F)cc2)nc(-c2cn(C)nn2)c1
solubility kinetic [1]: 75 µg/mL (≈ 221 µM) | IC50 [2]: 20 µM | Ratio pIC50 (Homo sapiens): 80 | IC50 [3]: 0.251 µM | Papp [4]: 33 ×10⁻⁶ cm/s

Cn1cc(-c2cc(C(=O)N[C@H]3[C@@H]4COC[C@@H]43)cc(Cc3ccccc3)n2)nn1
solubility kinetic [1]: ≥ 145 µg/mL | IC50 [2]: 5.01 µM | Ratio pIC50 (Homo sapiens): 100 | IC50 [3]: 0.0501 µM | Papp [4]: 24 ×10⁻⁶ cm/s

CCNC(=O)c1ccc(O[C@@H](C)c2ccccc2)c(-c2cn(C)nn2)c1
solubility kinetic [1]: 105 µg/mL (≈ 300 µM) | IC50 [2]: 3.98 µM | Ratio pIC50 (Homo sapiens): 100 | IC50 [3]: 0.0398 µM | Papp [4]: 42 ×10⁻⁶ cm/s

C[C@H](Oc1ccc(C(=O)NCC[C@H]2CNCCO2)cc1-c1cn(C)nn1)c1ccccn1
solubility kinetic [1]: ≥ 182 µg/mL | IC50 [2]: 7.94 µM | Ratio pIC50 (Homo sapiens): 125 | IC50 [3]: 0.0631 µM | Papp [4]: < 0.3 ×10⁻⁶ cm/s

Cn1cc(-c2ccccc2OCc2ccccc2)nn1
solubility kinetic [1]: 87 µg/mL (≈ 328 µM) | IC50 [2]: 20 µM | Ratio pIC50 (Homo sapiens): 5 | IC50 [3]: 3.98 µM

CNC(=O)c1cc(C(=O)NC2CC2)cn(Cc2ccccc2)c1=O [GSK620]
solubility kinetic [1]: ≥ 154 µg/mL | Papp [4]: 20 ×10⁻⁶ cm/s

CCNC(=O)c1ccc(O[C@H](C)c2ccccc2)c(-c2cn(C)nn2)c1
solubility kinetic [1]: 119 µg/mL (≈ 340 µM) | IC50 [2]: 39.8 µM | Ratio pIC50 (Homo sapiens): 25 | IC50 [3]: 1.58 µM | Papp [4]: 42 ×10⁻⁶ cm/s

C[C@H](Oc1ccc(C(=O)N[C@H]2[C@@H]3COC[C@@H]32)cc1-c1cn(C)nn1)c1ccccn1
solubility kinetic [1]: ≥ 169 µg/mL | IC50 [2]: 1.58 µM | Ratio pIC50 (Homo sapiens): 65 | IC50 [3]: 0.0251 µM | Papp [4]: 4.2 ×10⁻⁶ cm/s

C[C@H](Oc1ccc(C(N)=O)cc1-c1cn(C)nn1)c1ccccn1
solubility kinetic [1]: 131 µg/mL (≈ 405 µM) | IC50 [2]: 6.31 µM | Ratio pIC50 (Homo sapiens): 25 | IC50 [3]: 0.251 µM | Papp [4]: 4.7 ×10⁻⁶ cm/s

Cc1cn(-c2ccccc2OCc2ccccc2)nn1
solubility kinetic [1]: 96 µg/mL (≈ 362 µM) | IC50 [2]: 31.6 µM | Ratio pIC50 (Homo sapiens): 2 | IC50 [3]: 15.8 µM

Cn1cc(-c2cc(C(N)=O)cc(Cc3ccccc3)n2)nn1
solubility kinetic [1]: 40 µg/mL (≈ 136 µM) | IC50 [2]: 12.6 µM | Ratio pIC50 (Homo sapiens): 50 | IC50 [3]: 0.251 µM | Papp [4]: 14 ×10⁻⁶ cm/s

C[C@H](Oc1ccc(C(=O)NCCC[C@@]2(F)CCCNC2)cc1-c1cn(C)nn1)c1ccccn1
solubility kinetic [1]: ≥ 193 µg/mL | IC50 [2]: 3.98 µM | Ratio pIC50 (Homo sapiens): 400 | IC50 [3]: 0.01 µM | Papp [4]: 0.53 ×10⁻⁶ cm/s

CCNC(=O)c1ccc(OCc2cccc(OC)c2)c(-c2cn(C)nn2)c1
solubility kinetic [1]: ≥ 139 µg/mL | IC50 [2]: 20 µM | Ratio pIC50 (Homo sapiens): 80 | IC50 [3]: 0.251 µM | Papp [4]: 42 ×10⁻⁶ cm/s

Cc1cc(-c2ccccc2OCc2ccccc2)on1
solubility kinetic [1]: 1 µg/mL (≈ 3.77 µM) | IC50 [2]: 10 µM | Ratio pIC50 (Homo sapiens): 3 | IC50 [3]: 3.98 µM

Cn1cc(-c2cc(C(=O)NC3CCOCC3)cc(Cc3ccccc3)n2)nn1
solubility kinetic [1]: ≥ 141 µg/mL | IC50 [2]: 20 µM | Ratio pIC50 (Homo sapiens): 160 | IC50 [3]: 0.126 µM | Papp [4]: 27 ×10⁻⁶ cm/s

CCNC(=O)c1cc(Cc2ccccc2F)nc(-c2cn(C)nn2)c1
solubility kinetic [1]: 66 µg/mL (≈ 194 µM) | IC50 [2]: 20 µM | Ratio pIC50 (Homo sapiens): 100 | IC50 [3]: 0.2 µM | Papp [4]: 30 ×10⁻⁶ cm/s

Cn1cc(-c2cc(C(=O)NC3CC3)cc(Cc3ccccc3)n2)nn1
solubility kinetic [1]: ≥ 76 µg/mL | Ratio pIC50 (Homo sapiens): 125 | IC50 [3]: 0.126 µM | Papp [4]: 36 ×10⁻⁶ cm/s

C[C@H](Oc1ccc(C(=O)NC2CCOCC2)cc1-c1cn(C)nn1)c1ccccn1
solubility kinetic [1]: ≥ 194 µg/mL | IC50 [2]: 15.8 µM | Ratio pIC50 (Homo sapiens): 100 | IC50 [3]: 0.126 µM | Papp [4]: 5.9 ×10⁻⁶ cm/s

C[C@H](Oc1ccc(C(=O)N[C@H]2CC[C@H](O)CC2)cc1-c1cn(C)nn1)c1ccccn1
solubility kinetic [1]: ≥ 188 µg/mL | IC50 [2]: 7.94 µM | Ratio pIC50 (Homo sapiens): 20 | IC50 [3]: 0.398 µM | Papp [4]: 1.3 ×10⁻⁶ cm/s

CCNC(=O)c1ccc(O[C@@H](C)c2ccccn2)c(-c2cn(C)nn2)c1
solubility kinetic [1]: ≥ 127 µg/mL | IC50 [2]: 7.94 µM | Ratio pIC50 (Homo sapiens): 100 | IC50 [3]: 0.0794 µM | Papp [4]: 15 ×10⁻⁶ cm/s

Cn1cc(-c2cc(C(=O)NCC[C@@H]3CNCCO3)cc(Cc3ccccc3)n2)nn1
solubility kinetic [1]: ≥ 138 µg/mL | IC50 [2]: 12.6 µM | Ratio pIC50 (Homo sapiens): 400 | IC50 [3]: 0.0316 µM | Papp [4]: 1.8 ×10⁻⁶ cm/s

C[C@H](Oc1ccc(C(=O)NCC[C@@H]2CNCCO2)cc1-c1cn(C)nn1)c1ccccn1
solubility kinetic [1]: ≥ 177 µg/mL | IC50 [2]: 6.31 µM | Ratio pIC50 (Homo sapiens): 250 | IC50 [3]: 0.0251 µM | Papp [4]: < 0.3 ×10⁻⁶ cm/s

CCNC(=O)c1ccc(OCc2ncccn2)c(-c2cn(C)nn2)c1
solubility kinetic [1]: ≥ 103 µg/mL | IC50 [2]: > 50.1 µM | Ratio pIC50 (Homo sapiens): > 30 | IC50 [3]: 1.58 µM | Papp [4]: 3.7 ×10⁻⁶ cm/s

Cn1cc(-c2cc(C(=O)NCCC[C@@]3(F)CCCNC3)cc(Cc3ccccc3)n2)nn1
solubility kinetic [1]: ≥ 172 µg/mL | IC50 [2]: 5.01 µM | Ratio pIC50 (Homo sapiens): 500 | IC50 [3]: 0.01 µM | Papp [4]: 2.3 ×10⁻⁶ cm/s

Cc1nnc(-c2ccccc2OCc2ccccc2)o1
solubility kinetic [1]: ≥ 252 µg/mL | IC50 [2]: > 50.1 µM | Ratio pIC50 (Homo sapiens): > 4 | IC50 [3]: 12.6 µM

CCNC(=O)c1cc(Cc2ccccc2)nc(-c2cn(C)nn2)c1
solubility kinetic [1]: ≥ 157 µg/mL | Ratio pIC50 (Homo sapiens): 170 | IC50 [3]: 0.1 µM | Papp [4]: 32.5 ×10⁻⁶ cm/s
